Data from patent US12077503B2, “Substituted cyclic amides and their use as herbicides” (FMC CORPORATION, priority 2015, dated 2024).

Assays:
Format in all cases: in vivo
[1] = system: rice (Oryra sativa); assay: Test B flooded paddy test; conditions: Oryza sativa, 250 g ai/ha, Flood; 0 to 100 scale where 0 is no effect and 100 is complete control; read-out: Rice plant response rating
Outline: (§1)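 Greenhouse paddy pots with 2-leaf stage plants received compound by direct addition to floodwater 3 cm deep, kept at that level. Scored visually at 13–15 d versus controls (0 no effect; 100 complete control).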

[2] = system: ducksalad (Heteranthera limosa); assay: Test B flooded paddy test; conditions: Heteranthera limosa, 250 g ai/ha, Flood; 0 to 100 scale where 0 is no effect and 100 is complete control; read-out: Ducksalad plant response rating
Outline: as §1

[3] = system: barnyardgrass (Echinochloa crus-galli); assay: Test B flooded paddy test; conditions: Echinochloa crus-galli, 250 g ai/ha, Flood; 0 to 100 scale where 0 is no effect and 100 is complete control; read-out: Barnyardgrass plant response rating
Outline: as §1

[4] = system: sedge, umbrella (small-flower umbrella sedge, Cyperus difformis); assay: Test B flooded paddy test; conditions: Cyperus difformis, 250 g ai/ha, Flood; 0 to 100 scale where 0 is no effect and 100 is complete control; read-out: Sedge, Umbrella plant response rating
Outline: as §1

[5] = system: ryegrass, Italian (Italian ryegrass, Lolium multiflorum); assay: Test A postemergence; conditions: Lolium multiflorum, post-emergence, 240 h, Postemergence, read-out: Ryegrass, Italian plant response rating (0 to 100 scale)
Outline: (§2)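 In a loam soil and sand blend, planted seeds got a preemergence directed soil spray, and young plants at the one- to two-leaf stage, 2–10 cm high, got a postemergence application; ~10 d greenhouse hold; injury rated visually, 0 = none, 100 = complete control.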

[6] = system: wheat (Triticum aestivum); assay: Test A postemergence; conditions: Triticum aestivum, post-emergence, 240 h, Postemergence, read-out: Wheat plant response rating (0 to 100 scale)
Outline: as §2

[7] = system: barnyardgrass (Echinochloa crus-galli); assay: Test A postemergence; conditions: Echinochloa crus-galli, post-emergence, 240 h, Postemergence
Outline: as §2

[8] = system: blackgrass (Alopecurus myosuroides); assay: Test A postemergence; conditions: Alopecurus myosuroides, post-emergence, 240 h, Postemergence, read-out: Blackgrass plant response rating (0 to 100 scale)
Outline: as §2

[9] = system: Kochia (Kochia scoparia); assay: Test A postemergence; conditions: Bassia scoparia, post-emergence, 240 h, Postemergence, read-out: Kochia plant response rating (0 to 100 scale)
Outline: as §2

[10] = system: corn (Zea mays); assay: Test A postemergence; conditions: Zea mays, post-emergence, 240 h, Postemergence, read-out: Corn plant response rating (0 to 100 scale)
Outline: as §2

[11] = system: giant foxtail (Setaria faberii); assay: Test A postemergence; conditions: Setaria faberi, post-emergence, 240 h, Postemergence, read-out: Foxtail, Giant plant response rating (0 to 100 scale)
Outline: as §2

[12] = system: Galium (catchweed bedstraw, Galium aparine); assay: Test A postemergence; conditions: Galium, post-emergence, 240 h, Postemergence, read-out: Galium plant response rating (0 to 100 scale)
Outline: as §2

[13] = system: pigweed (Amaranthus retroflexus); assay: Test A postemergence; conditions: Amaranthus retroflexus, post-emergence, 240 h, Postemergence, read-out: Pigweed plant response rating (0 to 100 scale)
Outline: as §2

[14] = system: ragweed (common ragweed, Ambrosia elatior); assay: Test A postemergence; conditions: Ambrosia artemisiifolia, post-emergence, 240 h, Postemergence, read-out: Ragweed plant response rating (0 to 100 scale)
Outline: as §2

[15] = system: ryegrass, Italian (Italian ryegrass, Lolium multiflorum); assay: Test A preemergence; conditions: Lolium multiflorum, pre-emergence, 240 h, 0 to 100 scale where 0 is no effect and 100 is complete control, read-out: Ryegrass, Italian plant response rating
Outline: as §2

[16] = system: barnyardgrass (Echinochloa crus-galli); assay: Test A preemergence; conditions: Echinochloa crus-galli, pre-emergence, 240 h, 0 to 100 scale where 0 is no effect and 100 is complete control, read-out: Barnyardgrass plant response rating
Outline: as §2

[17] = system: Kochia (Kochia scoparia); assay: Test A preemergence; conditions: Bassia scoparia, pre-emergence, 240 h, 0 to 100 scale where 0 is no effect and 100 is complete control, read-out: Kochia plant response rating
Outline: as §2

[18] = system: giant foxtail (Setaria faberii); assay: Test A preemergence; conditions: Setaria faberi, pre-emergence, 240 h, 0 to 100 scale where 0 is no effect and 100 is complete control, read-out: Foxtail, Giant plant response rating
Outline: as §2

[19] = system: pigweed (Amaranthus retroflexus); assay: Test A preemergence; conditions: Amaranthus retroflexus, pre-emergence, 240 h, 0 to 100 scale where 0 is no effect and 100 is complete control, read-out: Pigweed plant response rating
[20] = system: ragweed (common ragweed, Ambrosia elatior); assay: Test A preemergence; conditions: Ambrosia artemisiifolia, pre-emergence, 240 h, 0 to 100 scale where 0 is no effect and 100 is complete control, read-out: Ragweed plant response rating
Outline: as §2

[21] = 125 g ai/ha, visual rating about 10 d after treatment
[22] = 31 g ai/ha, 0 is no effect, 100 is complete control
[23] = 125 g ai/ha, preemergence, visual injury rating, approximately 10 d

**Q.** For CN1C[C@H](c2csc3c2CCC3)[C@@H](C(=O)Nc2ccccc2F)C1=O [Compound 1277], which pest or weed control at 250 g/ha [1] is on record?
**A.** 25%

**Q.** And the pest or weed control at 250 g/ha [2]?
**A.** 60%

**Q.** What about the pest or weed control at 250 g/ha [3] of the same compound?
**A.** 40%

**Q.** What about the pest or weed control at 250 g/ha [4] of the same compound?
**A.** 0%

**Q.** And the pest or weed control at 125 g/ha [5, 21]?
**A.** 0%

**Q.** What about the pest or weed control at 31 g/ha [5, 22] of the same compound?
**A.** 0%

**Q.** What about the plant injury at 125 g/ha [6, 21] of the same compound?
**A.** 0%

**Q.** And the plant injury at 31 g/ha [6, 22]?
**A.** 0%

**Q.** What about the pest or weed control at 125 g/ha ([7]; 125 g ai/ha, visual rating about 10 d after treatment, read-out: Barnyardgrass plant response rating (0 to 100 scale, 0 no effect, 100 complete control)) of the same compound?
**A.** 80%

**Q.** What about the pest or weed control at 31 g/ha ([7]; 31 g ai/ha, 0 is no effect, 100 is complete control, read-out: Barnyardgrass plant response rating (0 to 100 scale)) of the same compound?
**A.** 30%

**Q.** And the pest or weed control at 125 g/ha [8, 21]?
**A.** 0%

**Q.** And the pest or weed control at 31 g/ha [8, 22]?
**A.** 0%

**Q.** And the pest or weed control at 125 g/ha [9, 21]?
**A.** 0%

**Q.** What about the pest or weed control at 31 g/ha [9, 22] of the same compound?
**A.** 0%

**Q.** What about the plant injury at 125 g/ha [10, 21] of the same compound?
**A.** 0%

**Q.** What about the plant injury at 31 g/ha [10, 22] of the same compound?
**A.** 0%

**Q.** What about the pest or weed control at 125 g/ha [11, 21] of the same compound?
**A.** 70%

**Q.** And the pest or weed control at 31 g/ha [11, 22]?
**A.** 50%

**Q.** And the pest or weed control at 125 g/ha [12, 21]?
**A.** 0%

**Q.** What about the pest or weed control at 31 g/ha [12, 22] of the same compound?
**A.** 0%

**Q.** What about the pest or weed control at 125 g/ha [13, 21] of the same compound?
**A.** 0%

**Q.** And the pest or weed control at 31 g/ha [13, 22]?
**A.** 0%

**Q.** What about the pest or weed control at 125 g/ha [14, 21] of the same compound?
**A.** 30%

**Q.** What about the pest or weed control at 31 g/ha [14, 22] of the same compound?
**A.** 30%

**Q.** What about the pest or weed control at 31 g/ha ([15]; 31 g ai/ha, Preemergence) of the same compound?
**A.** 0%

**Q.** What about the pest or weed control at 125 g/ha [15, 23] of the same compound?
**A.** 0%

**Q.** What about the pest or weed control at 31 g/ha ([16]; 31 g ai/ha, Preemergence) of the same compound?
**A.** 80%

**Q.** And the pest or weed control at 125 g/ha [16, 23]?
**A.** 100%

**Q.** And the pest or weed control at 31 g/ha ([17]; 31 g ai/ha, Preemergence)?
**A.** 0%

**Q.** And the pest or weed control at 125 g/ha [17, 23]?
**A.** 0%

**Q.** What about the pest or weed control at 31 g/ha ([18]; 31 g ai/ha, Preemergence) of the same compound?
**A.** 90%

**Q.** And the pest or weed control at 125 g/ha [18, 23]?
**A.** 100%

**Q.** What about the pest or weed control at 31 g/ha ([19]; 31 g ai/ha, Preemergence) of the same compound?
**A.** 0%

**Q.** And the pest or weed control at 125 g/ha [19, 23]?
**A.** 0%

**Q.** And the pest or weed control at 31 g/ha ([20]; 31 g ai/ha, Preemergence)?
**A.** 0%

**Q.** And the pest or weed control at 125 g/ha [20, 23]?
**A.** 0%
